From patent US11529361B2, “Halogenated salicylanilides for treating Clostridium infections” (UNION therapeutics A/S, priority 2015, dated 2022)
In brackets after ≈: the same amount, converted by molar mass. Like-named read-outs stand apart in the source and are kept apart here.

Tests used:
[1] = system: C. difficile clinical isolates; test: MIC determination by microbroth dilution per CLSI guideline (Example 1); type: cell-based, Clostridium difficile; conditions: Clostridioides difficile
[2] = system: C. difficile clinical isolates; conditions: C. difficile strain ATCC 700057, reference control; cited from earlier work
C. difficile = conditions: published data (footnote a); cited from earlier work

CN[C@H](CC(C)C)C(=O)N[C@H]1C(=O)N[C@@H](CC(N)=O)C(=O)N[C@H]2C(=O)N[C@H]3C(=O)N[C@H](C(=O)N[C@H](C(=O)O)c4cc(O)cc(O)c4-c4cc3ccc4O)[C@H](O)c3ccc(c(Cl)c3)Oc3cc2cc(c3O[C@@H]2O[C@H](CO)[C@@H](O)[C@H](O)[C@H]2O[C@H]2C[C@](C)(N)[C@H](O)[C@H](C)O2)Oc2ccc(cc2Cl)[C@H]1O [Vancomycin]
MIC ([1]; read-out: C. difficile Strain 7-6011209 MIC): 0.125 µg/mL (≈ 0.0863 µM)
MIC ([1]; read-out: C. difficile Strain 12055 MIC): 0.25 µg/mL (≈ 0.173 µM)
expected MIC of reference control strain [2]: 1 µg/mL
Highest MIC observed (C. difficile): 16^a μg/mL
MIC90 (C. difficile): 2^a μg/mL
